Assay results taken from EP0269017B1, “Therapeutic combination of free-radical scavenger or metabolic inhibitor and biologically active protein” (CETUS ONCOLOGY CORPORATION, priority 1986, dated 1988).
Read-outs that look alike come from different tables or passages of the source.

Tests used:
Meth-A tumor cells [1] = assay: TNF mutein and aspirin in mice with Meth-A tumor (Example 4)
Experimental: Female Balb/c mice were treated by subcutaneous implantation of Meth-A tumor cells as described in Example 1. Five mice per group were employed. Treatment was initiated seven days after the implantation.
A protocol was employed wherein aspirin or the TNF mutein of Example 1 alone, or aspirin together with the TNF mutein, were administered intravenously. In the combination group, aspirin was administered daily for five days and each dose was followed 1-4 hours later by TNF. PBS was used as a control.
The headings are defined in the footnotes of Table I. TABLE V

Meth-A tumor cells [2] = assay: TNF mutein with NDGA, aspirin or both in mice with Meth-A tumor (Example 5); settings: no TNF, aspirin 30 mg/kg i.v. and/or NDGA 15.6 mg/kg i.p. every third day 3 times; for △TW: day 14
Experimental: Female Balb/c mice were treated by subcutaneous implantation of Meth-A tumor cells as described in Example 1.
Details of the protocols are in the footnotes of Table VI. PBS was used as a control. Results were evaluated 14 days after initiation of treatment. The headings are defined in the footnotes of Table I. TABLE VI

[3] = Smith et al., cited from earlier work
Meth-A tumor cells [4] = assay: TNF mutein and BSO in mice with Meth-A tumor (Example 3); format: in vivo, Female Balb/c mice; settings: BSO 1.25 g/kg alone, i.p. twice daily for ten days
Experimental: Female Balb/c mice were implanted subcutaneously with Meth-A tumor cells as described in Example 1. Treatment was initiated seven days after the implantation.
A protocol was employed wherein BSO or the TNF mutein of Example 1 alone, or BSO together with the TNF mutein, were administered. BSO was administered intraperitonally and TNF intravenously. The BSO was started 24 hours prior to TNF administration twice daily (6-8 hours between doses) for ten days and TNF was given with the second BSO dose every third day for three times. BSO excipient was used as a volume control in the TNF alone groups. PBS was used as a control. The protocol is illustrated below: [formula]
Table III illustrates the results of this study, with the headings defined in the footnotes to Table II. The numbers in parentheses indicate the results from a repeat of the experiment.

Meth-A tumor cells [5] = format: in vivo, Female Balb/c mice; settings: uric acid 25 mg/kg alone, i.v. once daily for five days
Experimental: (§1) Female Balb/c mice were implanted subcutaneously with Meth-A tumor cells as described in Example 1.
An IL-2 mutein, designated des-ala₁-IL2-ser125 (with no alanine at position 1 of the mature IL-2 molecule and a serine at position 125 of the mature IL-2 molecule), was prepared by the method described in U.S. Patent No. 4,518,584, supra, isolated from refractile bodies in accordance with the procedure described in EP-A-0 206 828, published December 30, 1986, and formulated as described in U.S. Patent No. 4,604,377 in sodium dodecyl sulfate.
Table IX indicates the results obtained when the IL-2 mutein described herein alone, uric acid alone, and various combination injections of the IL-2 mutein and uric acid were administered intravenously to five mice per group (2-3 repeats) beginning seven days after tumor implantation and once daily for five days, with the uric acid being administered immediately prior to (about 10 minutes) the IL-2 administration when both were administered. Final measurements were made on day 14. The excipient control was injected with PBS. The uric acid doses were all 25 mg/kg of mice weight.

[6] = system: methylcholanthrene-induced murine fibrosarcoma (Meth-A); format: in vivo, Female Balb/c mice; settings: uric acid 25 mg/kg alone, i.v. every third day three times
From the text: Female Balb/c mice (Charles River Breeding Laboratories, Inc., Wilmington, MA) that were all 6-8 weeks old were employed in the in vivo tests. Animals were weight matched at 20 ± 3 g, randomized at five per cage, and ear-notched. All animals were held in quarantine observation for seven days after arrival, maintained in microisolator cages (Lab Products, Inc.), and fed standard laboratory diets and drinking water ad lib.
A mutein of human TNF-α having the first eight amino acids deleted from the N-terminus was prepared as described In U.S. Patent No. 4,677,064 Issued June 30, 1987 and Wang et al., Science (1985) 228:149-153. Briefly, TNF was induced from HL-60 cells and purified and sequenced. Then an intronless sequence encoding human TNF was prepared by producing enriched mRNA, constructing a cDNA library, selecting a probe and probing the library to recover the sequence. Then an ATG start codon was introduced immediately preceding the GTC sequence encoding N-terminal valine of the mature protein by site-directed mutagenesis. Clones were selected and strands ligated into expression vectors to obtain prokaryotic expression of the mutein. […]
The uric acid dose was slightly below the maximum concentration attainable without decreasing animal weight, determined in a preliminary toxicity study, and was given immediately prior to the TNF inoculation. […]

Meth-A tumor cells [7] = assay: TNF mutein and vitamin C in mice with Meth-A tumor (Example 2); format: in vivo, Female Balb/c mice; settings: for % Control △BW / Cures (△TW=0, or no visible tumor after 21 days from start of treatment) / Deaths / % Control △TW: i.v. every third day for three injections; for % Control △BW / % Control △TW: day 14
From the text: as §1

[8] = aspirin 30 mg/kg alone, i.v., 14 days after treatment began
[9] = Vit.C 7 mg/kg, TNF 125 µg/kg where given
[10] = Vit.C 35 mg/kg, TNF 125 µg/kg where given
[11] = Vit.C 70 mg/kg, TNF 125 µg/kg where given

## CC(=O)Oc1ccccc1C(=O)O [Aspirin]
Meth-A tumor cells [1]; aspirin 30 mg/kg alone, i.v.
  Cures: 0/5
  Deaths: 0/5
Meth-A tumor cells [1]; [8]
  △BW: 1.34
  △TW: 66.6
Meth-A tumor cells [1]; aspirin 30 mg/kg, single dose or once a day for five days
  toxicity of aspirin alone: non-toxic
Meth-A tumor cells [2]
  Cures: 0/5
  △TW: 60.3
Meth-A tumor cells [2]; NDGA cell adds (1 tumor death d. 14), aspirin + NDGA cell adds (d. 5)
  Deaths: 0/5

## CCCCS(=N)(=O)CCC(N)C(=O)O (stereo not drawn) [BSO, Buthionine Sulphoximine]
[3]; 400-800 mg/kg of BSO orally every eight hours, fifteen doses
  toxicity: toxic
[3]; fifteen doses of 100 mg/kg/dose of BSO orally every eight hours, Proceedings of AACR, 28 (March 1987), p. 440
  toxicity: relatively non-toxic
Meth-A tumor cells [4]
  Cures (no palpable tumor on day 14): 0/10
  Deaths: 0/10
Meth-A tumor cells [4]; mean values
  △TW: 29.8
Meth-A tumor cells [4]; mean values of two experiments
  △BW: 1.19

## CC(Cc1ccc(O)c(O)c1)C(C)Cc1ccc(O)c(O)c1 (stereo not drawn) [NDGA, nordihydroguaiaretic acid (4,4'-[2,3-dimethyl-1,4-butanediyl]-bis[1,2-benzenediol])]
Meth-A tumor cells [2]
  Cures: 0/5
  △TW: 50.8

## O=c1[nH]c(=O)c2[nH]c(=O)[nH]c2[nH]1 [Uric acid, uric acid]
Meth-A tumor cells [5]
  Cures: 0/5
Meth-A tumor cells [5]; day 14
  △TW: 42.3
[6]
  Cures (△TW=0, or no visible tumor after 21 days from start of treatment): 0/14
  △TW (ratio of mean tumor volume at 14 days to start of treatment): 51.7 ± 17.7

## O=C1O[C@H]([C@@H](O)CO)C(O)=C1O [Vit.C, Ascorbic Acid]
Meth-A tumor cells [7]; Vit.C 7 mg/kg, TNF 125 µg/kg immediately after where given
  % Control △BW: 92%
Meth-A tumor cells [7]; [9]
  Cures (△TW=0, or no visible tumor after 21 days from start of treatment): 0/5
  Deaths: 0/5
  % Control △TW: 76%
Meth-A tumor cells [7]; [10]
  Cures (△TW=0, or no visible tumor after 21 days from start of treatment): 0/5
  Deaths: 0/5
  % Control △BW: 100%
  % Control △TW: 88%
Meth-A tumor cells [7]; [11]
  Cures (△TW=0, or no visible tumor after 21 days from start of treatment): 0/5
  Deaths: 0/5
  % Control △BW: 96%
  % Control △TW: 74%
Meth-A tumor cells [7]; at the three doses tested (7, 35, 70 mg/kg)
  toxicity of vitamin C alone: non-toxic
